# Results from patent US8287911B2, “Endotoxin adsorbent for the prevention and treatment of autoimmune diseases” (Chondrex Inc., priority 2006, dated 2012).
# Where “and” joins values, the source holds several entries; their conditions need not be identical. Equal entries are not always repeated. Where two headings read alike, the source gives them in different places.
# What was measured:
# [1] = Particle size distribution, microscopic method (Japanese Pharmacopoeia); assay type: physicochemical; settings: for 50% Particle Size: resins of Examples 1-7 and reference, method of Example 9
# Description: The particle size of the endotoxin-adsorbent was determined based on the particle size distribution method. The particle distribution analysis was performed according to “The method for determining particle size distribution. Method 1: Microscopic method” in the second supplement of the general test procedures, section 65, Japanese Pharmacopoeia, 13th Issue. The 50% particle size (μm) was explained as the diameter of particles of the corresponding values of the accumulative volume of particles is 50%.
# The particle size distribution was measured according to “Measurement of Particle Size Distribution. Method 1: Microscopic method” in the second supplement of the general test procedures, Section 65, Japanese Pharmacopoeia, 13th Issue. The microscope and camera used for this experiment was Nikon ECLIPSE E600 and Victor KY-F55B, respectively. The collected data was analyzed using Nano Hunter NS2K-Pro. The 50% particle size of RPMB was 213 μm, and the content of small particles not more than 5 μm in a diameter was 0%.
# [2] = assay type: binding, E. coli O-111; settings: for LPS Activity Remaining, 10 mm / LPS Activity Remaining, 20 mm / LPS Activity Remaining, Before: 1 mL LPS 5 μg/mL; for LPS Activity Remaining, 10 mm / LPS Activity Remaining, 20 mm: 37° C.; for LPS Activity Remaining, 10 mm: 10 minutes after adding resin; for LPS Activity Remaining, 20 mm: 20 minutes after adding resin; for LPS Activity Remaining, Before: supernatant before adding resin (baseline)
# Description: Endotoxin was assayed by an end point colorimetric assay method using Endospecy-ES24S kit (Seikagaku Kogyo, Japan). Lipopolysaccharide (LPS) from E. coli O-111 (Sigma L4130) was dissolved in pyrogen-free water at 5 μg/mL. One mL of this LPS solution was mixed with 50 μg and 100 μg of RPMB-1, and 100 μg of polymixin B-unconjugated resin (control) and incubated at 37° C. with stirring. Endotoxin levels were determined in the supernatant before, 10 and 20 minutes after adding the resins.
# [3] = Endotoxin adsorption and elimination capacity (2), LPS-binding capacity from OD210 of supernatant; design: species or system E. coli O-111; settings: for Endotoxin-Binding capacity (LP5 mg/g*): converted to dry weight of LPS per gram resin; for Endotoxin-Binding Capacity: per gram resin, method of Example 11
# Description: The LPS binding capacity of the endotoxin-adsorbent in a test tube was determined according to the method described in “endotoxin test procedures” in Japanese Pharmacopoeia, in addition to a simple assay method of LPS by measuring OD values, which was developed during this invention. The experimental procedures and results are shown in EXAMPLE 10 and 11 in detail.
# The endotoxin-binding capacity of polymixin B conjugates was also studied. LPS (Sigma L4130) was dissolved in pyrogen-free water at 0.2 mg/mL, and 4 mL of this solution was added to a test tube containing 20.6 mg of RPMB-1, and incubated at 37° C. with stirring. The supernatant was collected every 30 minutes by centrifugation and the OD values at 210 nm was determined. The OD210 value was dropped from 1 to 0.6 within the first 30 minutes of incubation and remained unchanged afterwards. […] Therefore, it was assumed that 20.6 mg of LPS adsorbent added in the first test tube was saturated with LPS. Accordingly, an LPS adsorption capacity of RPMB-1 was calculated based on the OD value changes of LPS solution. Since the LPS preparation used in this experiment was not pure and contaminated by DNA and proteins, it was assumed that the final OD value of 0.4 reflected the OD value of such contaminants. Based on this assumption, it was calculated that 1 g of RPMB is capable of binding approximately 25.9 mg of LPS (Sigma L4130) using the following formula: (0.8 mg×0.4/0.6)/0.0206=25.9 mg Since the endotoxin unit of this LPS preparation is 1.1×10^6 EU/mg, it was calculated that 1 g of RPMB-1 is capable of binding 29×10^6 EU of endotoxin.
# Polymixin B-conjugated resins prepared in Examples 1-7 were analyzed for their particle size distribution by the method described in Example 9 and assayed for the endotoxin-binding capacity by the method described in Example 11 to study the relationship between particle size and LPS-binding capacity. AffiPrep poplymixin B (BioRad, USA) was used as a reference.
# The endotoxin-binding capacity of individual batches of endotoxin-adsorbents prepared by conjugating with 3 million units of polymixin B was compared and expressed as endotoxin units (EU) per gram weight of resin as well as LPS weight per gram resin. The weight of LPS was obtained by converting the EU values based on the EU value per mg of LPS preparation (Sigma L4130, LPS preparation from E. coli O-111, B4, by trichloroacetic acid extraction) used for this experiment.
# [4] = test system: autoantibody mediated, LPS-induced arthritis; experiment: Autoantibody mediated, LPS-induced arthritis model; assay type: in vivo, DBA/1JNCrj mice; settings: experiment 1, day 7; for Severity of Arthritis (score): average of 5 mice, maximum 16 per mouse; for Incidence of Arthritis: mice with arthritis/5
# Text: The therapeutic effect of the endotoxin-adsorbent on autoimmune diseases can be determined in the mouse arthritis model as described in our previous invention, JP-A 2006-151914. Briefly, arthritis can be induced in 100% of mice by IP injection of enough amounts of anti-type II collagen monoclonal antibody cocktail (Chondrex Inc., Redmond, Wash., USA) within 3 days (Terato K et al. Induction of arthritis with monoclonal antibodies to collagen. J. Immunol. 148:2103-2108, 1992). By reducing the dose of the monoclonal antibody cocktail to 2 mg, all mice remained normal without developing arthritis. However, oral administration of 3 mg of LPS on 3 consecutive days from day 0, day 1, day 2 […] into these mice induced clinically apparent arthritis, which reached the peak on day 6-7. Furthermore, one group of mice was co-administered with indomethasin and ovoinhibitor, a protease-inhibitor purified from egg white. The combination of indomethasin and ovoinhibitor was used to increase the mucosal permeability of gastro-intestinal mucosa. In these mice, the effect of LPS was more significant, and more severe arthritis was induced by oral administration of a same dose of LPS. Using this arthritis model induced by a combination of monoclonal antibody and LPS, the therapeutic effect of the endotoxin-adsorbent can be determined. The benefit of this model is multifold: time of experimentation is short compared with an authentic collagen-induced arthritis model, the standard deviation of severity of arthritis among individual mice is much less, and the effect of the LPS-adsorbent is clearly determined.
# DBA/1JNCrj mice (Japan Charles River) were divided into 5 groups (G1-G5, 5 mice per group). In order to increase the mucosal permeability, all mice received 40 μg of indomethasin (Sigma) and 2 mg of ovomucoid (Sigma) for 5 consecutive days from day −6 to −2 by the oral route. On day 0, all mice received an IV injection of 0.2 mL of arthritogenic monoclonal antibody cocktail (10 mg/mL). Endotoxin derived from E. coli O-111 (Phenol extracted LPS, Sigma) was dissolved in PBS at 7.5 mg/mL, and 0.2 mL of this solution was administered into G1-G4 mice by the oral route for 3 consecutive days from day 0 to 2. Endotoxin-adsorbent, RPMB-1, was suspended in distilled water at 100 mg/mL, and deaerated by a vacuum pump to keep the particles in uniform suspension by preventing the aggregation of the particles. The RPMB-1 suspension was administered to mice at doses of 0.125 mL (G2), 0.25 mL (G3) and 0.5 mL (G4) twice a day for 4 consecutive days from day 0 to 3 after LPS administration. G1 received 0.25 mL of water alone. Mice in G5, a positive control of arthritis, received IP injection of 0.1 mL of LPS solution (0.5 mg/mL in PBS) on day 3.
# Severity of arthritis was scored by 5 grades, 0: normal without any swelling, 1: clinically apparent swelling of one digit, 2: moderate redness and swelling of more than 2 digits or moderate redness and swelling of the entire paw, 3: severe redness and swelling of the entire paws, and 4: maximum inflamed limb with involvement of multiple joints. The sum of the arthritis score (maximum 16 per mouse) of individual animals was calculated. The effect of the endotoxin-adsorbent was calculated based on the average score of 5 mice using the following equation: Suppression of arthritis(%)=(1−Average score of test group/Average score of control group)×100
# Since the arthritis scores reached a maximum on day 7, the effect of the endotoxin-adsorbent was calculated using the scores on day 7. The suppression of arthritis by RPMB prepared in EXAMPLE 2 at 25 mg, 50 mg and 100 mg per mouse by oral administration is shown in Table 3.
# [5] = test system: autoantibody mediated, LPS-induced arthritis; experiment: Autoantibody mediated, LPS-induced arthritis model; assay type: in vivo, DBA/1JNCrj mice; settings: experiment 2; for Severity of Arthritis (score) / Incidence of Arthritis: 10 mg/mouse oral; for Severity of Arthritis (score): average of 5 mice, maximum 16 per mouse; for Incidence of Arthritis: mice with arthritis/5; for effect on development of arthritis (in words): dose of 10 mg per mouse
Substance,50% Particle Size [1] [μm],Endotoxin-Binding capacity (LP5 mg/g*) [3] [mg/g],Endotoxin-Binding Capacity [3],Severity of Arthritis (score) [5] [score],Incidence of Arthritis [5],effect on development of arthritis (in words) [5],also measured
Epoxyacryl Resin-Polymixin B Conjugate [RPMB-1],32,26.5,29 × 10^6 EU/g,,,,"LPS Activity Remaining, 10 mm ([2]; resin amount 50 μg): 2403 EU/mL; LPS Activity Remaining, 20 mm ([2]; resin amount 50 μg): 1207 EU/mL; LPS Activity Remaining, Before ([2]; resin amount 50 μg): 5632 EU/mL; LPS Activity Remaining, 10 mm ([2]; resin amount 100 μg): 1004 EU/mL; LPS Activity Remaining, 20 mm ([2]; resin amount 100 μg): 170 EU/mL; LPS Activity Remaining, Before ([2]; resin amount 100 μg): 5526 EU/mL; LPS adsorption (in words) ([2]; versus polymixin B-unconjugated control resin): specifically adsorbed; OD value of supernatant after adding fresh resin ([3]; 20.5 mg fresh resin added to the supernatant, reduced from 0.6): 0.4; OD210 value of supernatant ([3]; 20.6 mg resin in 4 mL LPS 0.2 mg/mL, 37° C., within first 30 minutes, dropped from 1): 0.6; endotoxin bound by 1 g of resin ([3]; per 1 g resin, calculated with 1.1×10^6 EU/mg LPS): 29×10^6 EU; Severity of Arthritis (score) ([4]; 25 mg/mouse oral): 9 score and 6.4 ± 1.8 score; Incidence of Arthritis ([4]; 25 mg/mouse oral): 4 out of 5 and 4/5; Severity of Arthritis (score) ([4]; 50 mg/mouse oral): 2 score and 2 ± 2.8 score; Incidence of Arthritis ([4]; 50 mg/mouse oral): 2 out of 5 and 2/5; Severity of Arthritis (score) ([4]; 100 mg/mouse oral): 0 ± 0 score; Incidence of Arthritis ([4]; 100 mg/mouse oral): None of the five mice and 0/5"
Epoxyacryl Resin-Polymixin B Conjugate [RPMB-2],32,105,120 × 10^6 EU/g,0 ± 0,0/5,suppressed the development of arthritis almost completely,
Epoxyacryl Resin-Polymixin B Conjugate [RPMB],213,17.5,20 × 10^6 EU/g,,,,"Distribution of Particle Size: 10% Diameter ([1]; 1006 particles analyzed): 160 (μm); Distribution of Particle Size: 90% Diameter ([1]; 1006 particles analyzed): 266 (μm); Distribution of Particle Size: Average Diameter ([1]; 1006 particles analyzed): 197 (μm); content of small particles not more than 5 μm in a diameter ([1]; 1006 particles analyzed): 0%; LPS bound by 1 g of resin ([3]; per 1 g resin, calculated from OD value changes, (0.8 mg×0.4/0.6)/0.0206): approximately 25.9 mg"
Weakly Acidic Cation-Exchange Resin-Polymixin B Conjugate [1/300],400,6.7,7.7 × 10^6 EU/g,,,,
Weakly Acidic Cation-Exchange Resin-Polymixin B Conjugate [1M/300],29,120,136.3 × 10^6 EU/g,0 ± 0,0/5,suppressed the development of arthritis almost completely,
Weakly Acidic Cation-Exchange Resin-Polymixin B Conjugate [4/300],400,6.3,7.2 × 10^6 EU/g,,,,
Weakly Acidic Cation-Exchange Resin-Polymixin B Conjugate [4M/300],26,30,29.5 × 10^6 EU/g,0.8 ± 1.8,1/5,suppressed the development of arthritis almost completely,
